Experimental findings from patent US20250241901A1, “ACTIVATION OF MNRR1 / CHCHD2 AS A THERAPEUTIC TARGET FOR MITOCHONDRIA ASSOCIATED DISORDERS” (Wayne State University, priority 2024, published 2025) are described below.

Structures are written as SMILES.

What all share (format): cell-based, human
Assay [1] has as its system RBPJk. In words: COX412-luciferase dual luciferase reporter assay in MELAS cybrid cells overexpressing MNRR1. The following applies: MELAS cybrid cells overexpressing MNRR1, 0.5 μM. The source says: FIGS. 12A-12C: FIG. 12A: Dual luciferase reporter assay showing relative activation of MNRR1-luciferase levels in MELAS cybrid cells overexpressing varying proportions of empty vector (EV) and constitutively active RBPJk (RBP-CA). FIG. 12B: Dual luciferase reporter assay showing relative activation of MNRR1-luciferase levels in MELAS cybrid cells overexpressing an empty vector (EV) or constitutively active RBPJk (RBP-CA) and HIF2α. FIG. 12C: Dual luciferase reporter assay showing relative activation of COX412-luciferase levels in MELAS cybrid cells overexpressing an empty vector (EV), MNRR1, and MNRR1+Auranofin (0.5 μM).
Luciferase reporter assay: Luciferase assays were performed with the dual-luciferase reporter assay kit (Promega). Briefly, cells were lysed in 1× passive lysis buffer (Promega) and 25 μL of lysate was used for assay with a tube luminometer using an integration time of 10 s. Transfection efficiency was normalized with the co-transfected pRL-SV40 Renilla luciferase expression plasmid.

Assay [2] concerns MNRR1. Nature of the assay: MNRR1 protein levels in MELAS cybrid cells (immunoblot). The following applies: MELAS cybrid cells, 10 μM, 24 h. As for the experimental part:
FIGS. 6A-6C: FIG. 6A: Above, Chemical structures of nitazoxanide, its metabolites, and similar compounds. Abbreviations: P4, Phenyl-4-aminosalicylic acid; 4ABA, 4-Aminobenzanilide; 4ASA, 4-Amino salicylic acid; BA, Benzanilide; PBO, Phenyl benzoate; PSA, Phenyl salicylic acid; 2AN, 2-Amino 5-nitrothiazole. Below, Equal amounts of lysates of MELAS cells treated with Vehicle (DMSO) or the various compounds (10 μM) for 24 h were separated on an SDS-PAGE gel and probed for MNRR1 levels. Actin was probed as a loading control and numbers below represent an average and SD of 3 biological replicates. FIGS. 6B-6C: MNRR1 transcript levels are shown relative to 18S rRNA (n=4 biological replicates, error bars represent SE). In all figures, * indicates p<0.05, ** indicates p<0.005.
FIGS. 11A-11F: RBPJk and HIF2α compete for binding at the ORE in the MNRR1 promoter to regulate transcription. FIG. 11A: Chromatin immunoprecipitation-qPCR assessing binding of HIF2α to the endogenous MNRR1 promoter in MELAS cybrid cells with 0% (CL9) and 70% heteroplasmy (DW7). FIG. 11B: Dual luciferase reporter assay showing relative activation of MNRR1-luciferase levels in MELAS cybrid cells overexpressing varying proportions of constitutively active RBPJk (RBP-CA) and HIF2α. FIG. 11C: Dual luciferase reporter assay showing relative activation of MNRR1-luciferase levels in MELAS cybrid cells overexpressing the WT (FIG. 9A) or ΔORE (positions 47-53 in SEQ ID NO: 25 in FIG. 9C) promoter with EV (dotted line) or HIF2α. FIG. 11D: Equal amounts of Control or HIFα knockdown (KD) MELAS cybrid cell lysates were separated on an SDS-PAGE gel and probed for HIF2α and MNRR1 levels. Tubulin was probed as loading control. FIG. 11E: Oxygen consumption measured from Control or HIFα knockdown (KD) MELAS cybrid cells. (n=4 biological replicates, error bars represent SE). FIG. 11F: Left, Oxygen consumption measured from MELAS cybrid cells treated with vehicle (DMSO) or PT2385 (10 μM), an inhibitor of HIF2α function, for 24 h. Right, Equal amounts of MELAS cybrid cell lysates treated with vehicle (DMSO) or PT2385 (10 μM) for 24 h, separated on an SDS-PAGE gel, and probed for MNRR1 levels. GAPDH was probed as a loading control.
Immunoblotting: Immunoblotting was performed as described previously. Cell lysates for immunoblotting were prepared using RIPA buffer (Abcam, Waltham, MA) and included a protease and phosphatase inhibitor cocktail (Sigma, St. Louis, MO). […] The clear supernatants were transferred to new tubes and quantified using the Bradford reagent with BSA as standard (BioRad, Hercules. CA). […] For detection after immunoblotting, the SuperSignal™ West Pico PLUS substrate (ThermoFisher, Waltham, MA) was used to generate chemiluminescence signal, which was detected with X-Ray film (RadTech, Vassar, MI).

Assay [3] concerns MELAS cybrid cells. Nature of the assay: Oxygen consumption of MELAS cybrid cells (Seahorse). The following applies: 10 μM, 24 h. As for the experimental part:
FIGS. 7A-7E: MNRR1 activation by tizoxanide enhances mtDNA biogenesis and mitophagy to shift heteroplasmy in MELAS cells. FIG. 7A: Oxygen consumption measured from MELAS cybrid cells treated with vehicle (DMSO) or tizoxanide (10 μM) for 48 h (n=4 biological replicates, error bars represent SE). FIG. 7B: Haelll restriction enzyme digestion of a PCR-amplified fragment of mtDNA harboring the m.3243A>G mutation from DW7 cells treated with vehicle (DMSO) or tizoxanide (10 μM) for 144 h. […] FIG. 7C: Genes identified using qPCR of MELAS cybrid cells stably overexpressing EV or MNRR1. FIG. 7D: MtDNA levels are shown relative to nuclear DNA (nDNA) (GAPDH) (n=5 biological replicates, error bars represent SE). […]
FIGS. 11A-11F: RBPJk and HIF2α compete for binding at the ORE in the MNRR1 promoter to regulate transcription. […] FIG. 11E: Oxygen consumption measured from Control or HIFα knockdown (KD) MELAS cybrid cells. […] FIG. 11F: Left, Oxygen consumption measured from MELAS cybrid cells treated with vehicle (DMSO) or PT2385 (10 μM), an inhibitor of HIF2α function, for 24 h. […]
Intact cellular oxygen consumption and measurement of ATP: Cellular oxygen consumption was measured with a Seahorse XFe24 Bioanalyzer (Agilent). Cells were plated at a concentration of 3.5×10^4 per well a day prior to treatment and basal oxygen consumption was measured 48 h after treatments, as described. […]

As to `CC(=O)OC[C@H]1O[C@@H]([S-])[C@H](OC(C)=O)[C@@H](OC(C)=O)[C@@H]1OC(C)=O.CCP(CC)CC.[Au+]` [Auranonfin, Auranofin], the “MNRR1 induced transcription (COX412-luciferase)” value in assay [1] is “able to block the effects of MNRR1 induced transcription”. Regarding `CS(=O)(=O)c1ccc(Oc2cc(F)cc(C#N)c2)c2c1[C@H](O)C(F)(F)C2` [PT2385], in assay [2], the MNRR1 protein entry is reported as “rebound increase”. In addition, the OCR entry in assay [3] was “rebound increase”.
